Laboratory results from patent US8785488B2 (Exelixis Patent Company LLC, priority 2009, dated 2014).

How the values were obtained:
[1] = target: T1, h-TGR5 (Homo sapiens, UniProt Q8TDU6); test: TGR5 cAMP Assay using Cisbio cAMP Dynamic2 htrf kit (hTGR5CRE-luc HEK 293 cells); type: cell-based; conditions: h-TGR5 cAMP EC50, Table 1; read-out: cAMP (EC50)
T1 construct: expressed in transfected cells
T1 sequence (Q8TDU6 1-330): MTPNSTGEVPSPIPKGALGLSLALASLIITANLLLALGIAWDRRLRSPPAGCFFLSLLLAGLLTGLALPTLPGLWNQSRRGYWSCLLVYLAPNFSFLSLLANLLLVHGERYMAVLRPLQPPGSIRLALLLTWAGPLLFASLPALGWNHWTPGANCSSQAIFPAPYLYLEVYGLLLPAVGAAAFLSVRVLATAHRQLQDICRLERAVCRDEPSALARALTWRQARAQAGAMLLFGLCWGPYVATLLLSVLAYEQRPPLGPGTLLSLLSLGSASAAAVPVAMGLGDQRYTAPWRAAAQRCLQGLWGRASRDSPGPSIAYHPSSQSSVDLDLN
Outline: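 […], 4000 hTGR5CRE-luc HEK 293 cells per well, with 0.5 mM IBMX and d2-cAMP, were incubated 30 min at room temperature with compounds in 8-point half-log series, in quadruplicate.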

[2] = target: T2, human TGR5 (h-TGR5) (Homo sapiens, UniProt Q8TDU6); test: TGR5/CRE-Luciferiase Assay (HEK 293 hTGR5/CRE-Luc cells); type: cell-based; conditions: h-TGR5 CRE-Luc EC50, Table 1; read-out: CRE-Luc (EC50)
T2 construct: expressed in transfected cells
T2 sequence (Q8TDU6 1-330): T1 sequence (Q8TDU6 1-330)
Outline: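 HEK293 cells stably carrying hTGR5 and a CRE-luciferase reporter were exposed to serially diluted compounds (diluted in DMEM with 5% DMSO) for 6 h. Cells were then lysed in luciferase buffer, luminescence was read, and EC50 values were derived from dose-response curves.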

Row | SMILES | EC50 [1] [nM] | EC50 [2] [nM]
1 | COc1cc(C(C)(C)c2cnc(COc3ccc(Cl)c(-c4nnn[nH]4)c3)n2-c2ccc(F)cc2)ccc1Cl [5-[2-chloro-5-({[5-{1-[4-chloro-3-(methyloxy)phenyl]-1-methylethyl}-1-(4-fluorophenyl)-1H-imidazol-2-yl]methyl}oxy)phenyl]-1H-tetrazole] | 100 to 1000 | < 100
2 | COc1cc(C(C)(C)c2cnc(SCc3ccc(Cl)c(-c4nnn[nH]4)c3)n2-c2ccc(F)cc2)ccc1Cl [5-[2-chloro-5-({[5-{l-[4-chloro-3-(methyloxy)phenyl]-1-methylethyl}-1-(4-fluorophenyl)-1H-imidazol-2-yl]thio}methyl)phenyl]-1H-tetrazole] | 100 to 1000 | < 100
3 | CC(C)(O)COc1ccc(CSc2ncc(C(C)(C)c3ccc(Cl)c(Cl)c3)n2-c2ccc(F)cc2)cc1S(N)(=O)=O [5-[({5-[1-(3,4-dichlorophenyl)-1-methylethyl]-1-(4-fluorophenyl)-1H-imidazol-2-yl}thio)methyl]-2-[(2-hydroxy-2-methylpropyl)oxy]benzenesulfonamide] | 100 to 1000 | < 100
4 | CC(C)(c1ccc(Cl)c(Cl)c1)c1cnc(SCc2ccc(OCCO)c(S(N)(=O)=O)c2)n1-c1ccc(F)cc1 [5-[({5-[1-(3,4-dichlorophenyl)-1-methylethyl]-1-(4-fluorophenyl)-1H-imidazol-2-yl}thio)methyl]-2-[(2-hydroxyethyl)oxy]benzenesulfonamide] | 100 to 1000 | < 100
5 | CC(=O)COc1ccc(CSc2ncc(C(C)(C)c3ccc(Cl)c(Cl)c3)n2-c2ccc(F)cc2)cc1S(N)(=O)=O [5-[({5-[1-(3,4-dichlorophenyl)-1-methylethyl]-1-(4-fluorophenyl)-1H-imidazol-2-yl}thio)methyl]-2-[(2-oxopropyl)oxy]benzenesulfonamide] | 100 to 1000 | < 100
6 | CC(C)(c1ccc(Cl)c(Cl)c1)c1cnc(SCc2ccc(F)c(C(N)=O)c2)n1-c1ccc(F)cc1 [5-[({5-[1-(3,4-dichlorophenyl)-1-methylethyl]-1-(4-fluorophenyl)-1H-imidazol-2-yl}thio)methyl]-2-fluorobenzamide] | 100 to 1000 | 100 to 1000
7 | CC(C)(c1ccc(Cl)c(Cl)c1)c1cnc(SCc2ccc(F)c(S(N)(=O)=O)c2)n1-c1ccc(F)cc1 [5-[({5-[1-(3,4-dichlorophenyl)-1-methylethyl]-1-(4-fluorophenyl)-1H-imidazol-2-yl}thio)methyl]-2-fluorobenzenesulfonamide] | 100 to 1000 | < 100
8 | CC(C)(c1ccc(Cl)c(Cl)c1)c1cnc(SCc2ccc(F)c(C(=O)O)c2)n1-c1ccc(F)cc1 [5-[({5-[1-(3,4-dichlorophenyl)-1-methylethyl]-1-(4-fluorophenyl)-1H-imidazol-2-yl}thio)methyl]-2-fluorobenzoic acid] | 100 to 1000 | 100 to 1000
9 | COc1ccc(C(C)(C)c2cnc(SCc3ccc(F)cc3Cl)n2-c2ccc(F)cc2)cc1OC [5-{1-[3,4-bis(methyloxy)phenyl]-1-methylethyl}-2-{[(2-chloro-4-fluorophenyl)methyl]thio}-1-(4-fluorophenyl)-1H-imidazole] | 100 to 1000 | < 100
10 | CC(C)(c1ccc(Cl)c(Cl)c1)c1c(Cl)nc(SCc2ccc(-c3nnn[nH]3)c(Cl)c2)n1-c1ccc(F)cc1 [5-{2-chloro-4-[({4-chloro-5-[1-(3,4-dichlorophenyl)-1-methylethyl]-1-(4-fluorophenyl)-1H-imidazol-2-yl}thio)methyl]phenyl}-1H-tetrazole] | 1000 to 10000 | 100 to 1000
11 | CC(C)(c1ccc(Cl)c(Cl)c1)c1cnc(SCc2ccc(Cl)c(-c3nnn[nH]3)c2)n1-c1cccc(Cl)c1 [5-{2-chloro-5-[({1-(3-chlorophenyl)-5-[1-(3,4-dichlorophenyl)-1-methylethyl]-1H-imidazol-2-yl}thio)methyl]phenyl}-1H-tetrazole] | 100 to 1000 | 100 to 1000
12 | CC(C)(c1ccc(Cl)c(Cl)c1)c1cnc(SCc2ccc(Cl)c(-c3nnn[nH]3)c2)n1-c1ccc(F)cc1 [5-{2-chloro-5-[({5-[1-(3,4-dichlorophenyl)-1-methylethyl]-1-(4-fluorophenyl)-1H-imidazol-2-yl}thio)methyl]phenyl}-1H-tetrazole] | 100 to 1000 | 100 to 1000
13 | CC(C)(c1ccc(Cl)c(Cl)c1)c1cnc(SCC2CCN(c3nnn[nH]3)C2)n1-c1ccc(F)cc1 (stereo not shown) [5-{3-[({5-[1-(3,4-dichlorophenyl)-1-methylethyl]-1-(4-fluorophenyl)-1H-imidazol-2-yl}thio)methyl]pyrrolidin-1-yl}-1H-tetrazole] | 1000 to 10000 | 100 to 1000
14 | CC(C)(c1ccc(Cl)c(Cl)c1)c1cnc(SCc2ccc(-c3nnn[nH]3)cc2Cl)n1-c1ccc(F)cc1 [5-{3-chloro-4-[({5-[1-(3,4-dichlorophenyl)-1-methylethyl]-1-(4-fluorophenyl)-1H-imidazol-2-yl}thio)methyl]phenyl}-1H-tetrazole] | 100 to 1000 | 100 to 1000

Next, values leading:

Row | EC50 [1] [nM] | EC50 [2] [nM] | SMILES
15 | 100 to 1000 | < 100 | COc1ccc(C(C)(C)c2cnc(SCc3ccc(Cl)c(-c4nnn[nH]4)c3)n2-c2ccc(F)cc2)cc1Cl [5-[2-chloro-5-({[5-{1-[3-chloro-4-(methyloxy)phenyl]-1-methylethyl}-1-(4-fluorophenyl)-1H-imidazol-2-yl]thio}methyl)phenyl]-1H-tetrazole]
16 | < 100 | < 100 | COc1cc(C(C)(C)c2cnc(SCc3c(F)cc(-c4n[nH]c(=O)o4)cc3Cl)n2-c2ccc(F)cc2)ccc1Cl [5-[3-chloro-4-({[5-{1-[4-chloro-3-(methyloxy)phenyl]-1-methylethyl}-1-(4-fluorophenyl)-1H-imidazol-2-yl]thio}methyl)-5-fluorophenyl]-1,3,4-oxadiazol-2(3H)-one]
17 | < 100 | < 100 | COc1cc(C(C)(C)c2cnc(SCc3c(F)cc(-c4nnn[nH]4)cc3F)n2-c2ccc(F)cc2)ccc1Cl [5-[4-({[5-{1-[4-chloro-3-(methyloxy)phenyl]-1-methylethyl}-1-(4-fluorophenyl)-1H-imidazol-2-yl]thio}methyl)-3,5-difluorophenyl]-1H-tetrazole]
18 | < 100 | < 100 | COc1cc(C(C)(C)c2cnc(SCc3ccc(F)c(-c4nnn[nH]4)c3)n2-c2ccc(F)cc2)ccc1Cl [5-[5-({[5-{1-[4-chloro-3-(methyloxy)phenyl]-1-methylethyl}-1-(4-fluorophenyl)-1H-imidazol-2-yl]thio}methyl)-2-fluorophenyl]-1H-tetrazole]
19 | < 100 | < 100 | COc1ccc(C(C)(C)c2cnc(SCc3c(F)cccc3C(F)(F)F)n2-c2ccc(F)cc2)cc1OC [5-{1-[3,4-bis(methyloxy)phenyl]-1-methylethyl}-1-(4-fluorophenyl)-2-({[2-fluoro-6-(trifluoromethyl)phenyl]methyl}thio)-1H-imidazole]
20 | < 100 | < 100 | COc1ccc(C(C)(C)c2cnc(CCc3c(F)cccc3Cl)n2-c2ccc(F)cc2)cc1OC [5-{1-[3,4-bis(methyloxy)phenyl]-1-methylethyl}-2-[2-(2-chloro-6-fluorophenyl)ethyl]-1-(4-fluorophenyl)-1H-imidazole]
21 | < 100 | < 100 | COc1ccc(C(C)(C)c2cnc(SCc3c(Cl)cccc3Cl)n2-c2ccc(F)cc2)cc1OC [5-{1-[3,4-bis(methyloxy)phenyl]-1-methylethyl}-2-{[(2,6-dichlorophenyl)methyl]thio}-1-(4-fluorophenyl)-1H-imidazole]
22 | < 100 | < 100 | COc1ccc(C(C)(C)c2cnc(SCc3cc(F)ccc3Cl)n2-c2ccc(F)cc2)cc1OC [5-{1-[3,4-bis(methyloxy)phenyl]-1-methylethyl}-2-{[(2-chloro-5-fluorophenyl)methyl]thio}-1-(4-fluorophenyl)-1H-imidazole]
23 | < 100 | < 100 | COc1ccc(C(C)(C)c2cnc(COc3c(F)cccc3Cl)n2-c2ccc(F)cc2)cc1OC [5-{1-[3,4-bis(methyloxy)phenyl]-1-methylethyl}-2-{[(2-chloro-6-fluorophenyl)oxy]methyl}-1-(4-fluorophenyl)-1H-imidazole]
24 | < 100 | < 100 | COc1ccc(C(C)(C)c2cnc(CSc3c(F)cccc3Cl)n2-c2ccc(F)cc2)cc1OC [5-{1-[3,4-bis(methyloxy)phenyl]-1-methylethyl}-2-{[(2-chloro-6-fluorophenyl)thio]methyl}-1-(4-fluorophenyl)-1H-imidazole]
25 | < 100 | < 100 | COc1ccc(C(C)(C)c2cnc(SCc3cc(F)cc(Cl)c3)n2-c2ccc(F)cc2)cc1OC [5-{1-[3,4-bis(methyloxy)phenyl]-1-methylethyl}-2-{[(3-chloro-5-fluorophenyl)methyl]thio}-1-(4-fluorophenyl)-1H-imidazole]
26 | < 100 | < 100 | COc1ccc(C(C)(C)c2c(Cl)nc(SCc3c(F)cccc3Cl)n2-c2ccc(F)cc2)cc1OC [5-{1-[3,4-bis(methyloxy)phenyl]-1-methylethyl}-4-chloro-2-{[(2-chloro-6-fluorophenyl)methyl]thio}-1-(4-fluorophenyl)-1H-imidazole]
